Biological target: T1, GqinOBP10
T1 construct: gene OBP10; full length 134 residues (405 bp); signal peptide removed; vector pCZN1, E. coli BL21 (DE3); His tag cut off with enterokinase; about 15 kDa
Assay: fluorescence competitive binding with 1-NPN probe
Design: species or system Gynaephora qinghaiensis
Settings: 2 µM protein, 50 mM Tris-HCl pH 7.4; displacement of 1-NPN
From the text: fluorescence competitive binding with 1-NPN probe on GqinOBP10

IC50 | Ki | SMILES
6 µM | 5.96 µM | CCCCCCCC/C=C\CCCCCCCC(=O)OC(CO)CO [2-Oleoylglycerol]
12 µM | 11.9 µM | OC1CCc2ccccc21 (stereo not shown) [1-Indanol]
11.7 µM | 11.6 µM | OCCC(O)CO (stereo not shown) [1,2,4-butanetriol]
15 µM | 14.9 µM | CC(CN)C(=O)O (stereo not shown) [3-Aminoisobutanoic acid]
18.7 µM | 18.6 µM | NC1(C(=O)O)CC1 [1-Aminocyclopropane-1-carboxylic acid]
13.1 µM | 13 µM | O=C1CCC(=O)CC1 [1,4-Cyclohexanedione]

SMILES | IC50 | Ki
N#CC[C@H](N)C(=O)O [β-cyano-L-alanine] | 12.3 µM | 12.2 µM
NCC(O)c1ccccc1 (stereo not shown) [2-Amino-1-phenylethanol] | 4.51 µM | 4.48 µM

From PMC12607499, “Prokaryotic Expression and Binding Characteristics of Odor-Binding Protein GqinOBP10 in Gynaephora qinghaiensis” (International Journal of Molecular Sciences, 2025)
